{"source": "patent US20090202451A1", "about": "“ORAL CARE PRODUCT AND METHODS OF USE AND MANUFACTURE THEREOF” (COLGATE-PALMOLIVE COMPANY, priority 2008, published 2009)", "system": "S. sanguis", "assay": "Ammonia production by S. sanguis at pH 4.0", "assay_type": "cell-based", "conditions": "5 millimolar amino acid, 0.1% sucrose, pH 4.0, 37° C., 30 minutes", "procedure": "An overnight culture of S. sanguis was grown at 37° C. in trypticase soy broth (Becton Dickinson, Sparks, Md.). The culture was centrifuged at 5,000 rpm for 5 minutes at 1 milliliter at a time into preweighed tubes in order to accumulate approximately 5 milligrams of wet pellet weight. The pellet was then resuspended into 20 millimolar potassium phosphate buffer (J T Baker, Phillipsburg, N.J.), pH 4.0, to simulate a stressed environment for the bacterial cell where ammonia would be produced for survival. The final concentration was 5 milligram per milliliter. To this final concentration, a 5 millimolar final concentration of L-arginine. L-citrulline, or L-ornithine was added along with a 0.1% final concentration of sucrose (VWR, West Chester, Pa.). This mixture was then incubated at 37° C. in a shaking water bath for 30 minutes before ammonia production was determined.\nIn order to analyze for ammonia, an Ammonia Assay kit was used from Diagnostic Chemicals Limited (Oxford, Conn.). The intended use of this specific kit is for the in vitro quantification of ammonia in plasma, but the procedure was modified in order to determine and quantify the ammonia production in plaque and/or bacteria."}
{"smiles": "N=C(N)NCCC[C@H](N)C(=O)O", "note": "[L-Arginine, L-arginine]", "values": [{"measurement": "Ammonia", "setting": "Trial 3", "result": 2.20, "unit": "ppm"}, {"measurement": "Ammonia", "setting": "Trial 5", "result": 0.5, "unit": "ppm"}]}
